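1) Cells in 96-well plates. 2) Compound, 48 h, 5 concentrations. 3) Linear interpolation between surrounding doses. 4) Unreached endpoint = highest concentration. GI50: concentration for 50% inhibition of growth.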 The source made the active and inactive calls. Rule as the data show it: active = GI50 up to about 1.1 µM and inactive = higher.
Tests used:
Assay in all cases: NCI-60 cell line screen, 48 h
CAKI-1 = test system: CAKI-1
COLO 205 = test system: COLO 205
DU-145 = test system: DU-145
EKVX = test system: EKVX
HOP-62 = test system: HOP-62
IGROV-1 = test system: IGROV-1
M14 = test system: M14
MDA-MB-435 = test system: MDA-MB-435
NCI-H460 = test system: NCI-H460
OVCAR-3 = test system: OVCAR-3
OVCAR-8 = test system: OVCAR-8
RPMI-8226 = test system: RPMI-8226
RXF 393 = test system: RXF 393
SK-MEL-5 = test system: SK-MEL-5
SNB-75 = test system: SNB-75
UACC-257 = test system: UACC-257
UACC-62 = test system: UACC-62
UO-31 = test system: UO-31
MOLT-4 = test system: MOLT-4

Measured: GI50

Cn1cnc([N+](=O)[O-])c1Sc1nc(N)nc2c1ncn2Cc1ccccc1
inactive: CAKI-1 13.3 µM | COLO 205 16.2 µM | DU-145 20.8 µM | EKVX 11.5 µM | HOP-62 19.7 µM | IGROV-1 14.5 µM | M14 22.9 µM | MDA-MB-435 21.6 µM | NCI-H460 17.8 µM | OVCAR-3 2.29 µM | OVCAR-8 18.1 µM | RPMI-8226 19 µM | RXF 393 19.5 µM | SK-MEL-5 19 µM | SNB-75 20.4 µM | UACC-257 14.3 µM | UACC-62 16.3 µM | UO-31 15.5 µM

CCOc1cc(NC(C)=O)ccc1C(=O)NN1C(=O)C(Oc2ccccc2)C1c1ccc(O)c(OC)c1 (stereo unspecified)
inactive: CAKI-1 54.8 µM | COLO 205 30.3 µM | DU-145 78 µM | EKVX 35.3 µM | HOP-62 42.7 µM | IGROV-1 34 µM | M14 52.1 µM | MDA-MB-435 42.4 µM | MOLT-4 12.9 µM | OVCAR-3 41.5 µM | OVCAR-8 22.1 µM | RPMI-8226 25.5 µM | RXF 393 24.3 µM | SK-MEL-5 19.1 µM | SNB-75 44.6 µM | UACC-257 47 µM | UO-31 35 µM

Fc1nc(-c2c3ccccc3c3sc4ccccc4n23)nc(N2CCOCCOCCOCCOCC2)n1
inactive: CAKI-1 > 100 µM | COLO 205 > 100 µM | DU-145 > 100 µM | EKVX > 100 µM | HOP-62 23.7 µM | IGROV-1 > 100 µM | M14 > 100 µM | MDA-MB-435 > 100 µM | MOLT-4 66.4 µM | NCI-H460 > 100 µM | OVCAR-3 63.1 µM | OVCAR-8 40.2 µM | RPMI-8226 > 100 µM | RXF 393 18.5 µM | SK-MEL-5 > 100 µM | SNB-75 2.56 µM | UACC-257 > 100 µM | UACC-62 > 100 µM | UO-31 > 100 µM

c1csc(-c2cscc2-c2cccs2)c1
inactive: CAKI-1 > 100 µM | COLO 205 50.8 µM | DU-145 1.31 µM | EKVX 58.3 µM | HOP-62 27.6 µM | IGROV-1 67.8 µM | M14 27.7 µM | MDA-MB-435 33.4 µM | MOLT-4 34.5 µM | NCI-H460 > 100 µM | OVCAR-3 17.4 µM | OVCAR-8 57.4 µM | RPMI-8226 43.6 µM | RXF 393 27.6 µM | SK-MEL-5 46.8 µM | SNB-75 69.2 µM | UACC-257 95.1 µM | UACC-62 72.3 µM | UO-31 58.2 µM

COc1cc(NC(C)=O)ccc1C(=O)N/N=C/c1ccc(Cl)cc1Cl
inactive: CAKI-1 39.6 µM | COLO 205 > 100 µM | DU-145 26.3 µM | EKVX 32.7 µM | HOP-62 29.6 µM | IGROV-1 30.2 µM | M14 48.1 µM | MDA-MB-435 19.6 µM | MOLT-4 73.8 µM | OVCAR-3 52.8 µM | OVCAR-8 48.9 µM | RPMI-8226 65.6 µM | RXF 393 20.7 µM | SK-MEL-5 77.3 µM | SNB-75 13.6 µM | UACC-257 27 µM | UACC-62 31.6 µM | UO-31 43.1 µM

O=c1c2cc3c(=O)n4c(cc(-c5ccccc5)c5cc(Cl)ccc54)nc3cc2nc2cc(-c3ccccc3)c3cc(Cl)ccc3n12
inactive: CAKI-1 > 100 µM | COLO 205 > 100 µM | DU-145 > 100 µM | EKVX 75.3 µM | HOP-62 34.9 µM | IGROV-1 > 100 µM | M14 > 100 µM | MDA-MB-435 > 100 µM | MOLT-4 > 100 µM | NCI-H460 > 100 µM | OVCAR-3 > 100 µM | OVCAR-8 > 100 µM | RPMI-8226 > 100 µM | RXF 393 34.8 µM | SK-MEL-5 > 100 µM | SNB-75 36.8 µM | UACC-257 > 100 µM | UACC-62 > 100 µM | UO-31 37.8 µM

NCCSS(=O)(=O)CCN
inactive: CAKI-1 > 100 µM | COLO 205 > 100 µM | DU-145 > 100 µM | EKVX > 100 µM | HOP-62 > 100 µM | IGROV-1 > 100 µM | M14 > 100 µM | MDA-MB-435 > 100 µM | MOLT-4 > 100 µM | NCI-H460 > 100 µM | OVCAR-3 > 100 µM | OVCAR-8 > 100 µM | RPMI-8226 > 100 µM | RXF 393 > 100 µM | SK-MEL-5 > 100 µM | SNB-75 > 100 µM | UACC-62 > 100 µM | UO-31 > 100 µM

N#CC(NNC(=O)c1c(Cl)c(Cl)c(Cl)c(Cl)c1-c1nc2cc(C(=O)c3ccccc3)ccc2[nH]1)c1cccc(Oc2ccccc2)c1 (stereo unspecified)
inactive: CAKI-1 35.2 µM | COLO 205 20.8 µM | DU-145 28.3 µM | EKVX 15.8 µM | HOP-62 25.8 µM | IGROV-1 26.7 µM | M14 25.6 µM | MDA-MB-435 16.6 µM | MOLT-4 24.3 µM | OVCAR-3 28.1 µM | OVCAR-8 41.6 µM | RPMI-8226 34.8 µM | RXF 393 16.9 µM | SK-MEL-5 15.4 µM | SNB-75 23.7 µM | UACC-257 38.1 µM | UO-31 30.8 µM

CCOC(=O)C1(C(=O)OCC)Nc2cccnc2N(C)N1
inactive: CAKI-1 19 µM | COLO 205 11.6 µM | DU-145 18.7 µM | HOP-62 35.5 µM | IGROV-1 22.8 µM | M14 19.3 µM | MDA-MB-435 18.9 µM | MOLT-4 12.4 µM | NCI-H460 > 100 µM | OVCAR-3 20.5 µM | OVCAR-8 18.5 µM | RPMI-8226 16.2 µM | RXF 393 18 µM | SK-MEL-5 17.4 µM | SNB-75 > 100 µM | UACC-257 17.6 µM | UACC-62 18 µM | UO-31 17.4 µM

CC(=O)Nc1c(C(=N)C#N)ncn1CCO
inactive: CAKI-1 > 100 µM | COLO 205 > 100 µM | DU-145 > 100 µM | EKVX > 100 µM | HOP-62 > 100 µM | IGROV-1 > 100 µM | M14 > 100 µM | MDA-MB-435 > 100 µM | NCI-H460 > 100 µM | OVCAR-3 > 100 µM | OVCAR-8 > 100 µM | RPMI-8226 > 100 µM | RXF 393 > 100 µM | SK-MEL-5 > 100 µM | SNB-75 > 100 µM | UACC-257 > 100 µM | UACC-62 > 100 µM

NC(=O)CSc1c2cc(O)ccc2nc2ccc(O)cc12
inactive: CAKI-1 > 10 µM | COLO 205 > 10 µM | DU-145 > 10 µM | EKVX > 10 µM | HOP-62 > 10 µM | IGROV-1 > 10 µM | M14 > 10 µM | MDA-MB-435 > 10 µM | MOLT-4 > 10 µM | NCI-H460 > 10 µM | OVCAR-3 > 10 µM | OVCAR-8 > 10 µM | RPMI-8226 > 10 µM | RXF 393 > 10 µM | SK-MEL-5 > 10 µM | SNB-75 > 10 µM | UACC-257 > 10 µM | UACC-62 > 10 µM

COc1ccc(C(=O)N(Cc2cccnc2)C(=S)N(Cc2cccnc2)C(=O)c2ccc(OC)cc2)cc1
inactive: CAKI-1 86.9 µM | COLO 205 > 100 µM | DU-145 > 100 µM | EKVX > 100 µM | HOP-62 35 µM | M14 > 100 µM | MDA-MB-435 62.8 µM | MOLT-4 > 100 µM | NCI-H460 > 100 µM | OVCAR-3 > 100 µM | OVCAR-8 66.8 µM | RPMI-8226 > 100 µM | RXF 393 38.8 µM | SK-MEL-5 > 100 µM | SNB-75 17.2 µM | UACC-257 > 100 µM | UACC-62 > 100 µM

O[C@H]1[C@H](O)[C@H](O)CN2CCC[C@@H](O)[C@H]12
inactive: CAKI-1 > 100 µM | COLO 205 > 100 µM | DU-145 > 100 µM | EKVX > 100 µM | HOP-62 > 100 µM | IGROV-1 > 100 µM | M14 > 100 µM | MDA-MB-435 > 100 µM | MOLT-4 > 100 µM | OVCAR-3 > 100 µM | OVCAR-8 > 100 µM | RPMI-8226 > 100 µM | RXF 393 > 100 µM | SK-MEL-5 > 100 µM | SNB-75 81.1 µM | UACC-257 > 100 µM | UACC-62 > 100 µM | UO-31 > 100 µM

N=C(N)Nc1nc2cc([N+](=O)[O-])ccc2[nH]1
inactive: CAKI-1 > 100 µM | COLO 205 > 100 µM | DU-145 > 100 µM | EKVX 41.6 µM | HOP-62 > 100 µM | IGROV-1 > 100 µM | M14 > 100 µM | MDA-MB-435 > 100 µM | MOLT-4 > 100 µM | NCI-H460 > 100 µM | OVCAR-3 99.3 µM | OVCAR-8 > 100 µM | RPMI-8226 > 100 µM | RXF 393 58.9 µM | SK-MEL-5 83 µM | SNB-75 22.1 µM | UACC-257 80.2 µM | UACC-62 55.1 µM | UO-31 93.8 µM

CC(C)(C)c1ccc(-c2nc3ccccc3c(=O)o2)cc1
inactive: CAKI-1 86.3 µM | COLO 205 30.6 µM | DU-145 59.7 µM | EKVX 30.7 µM | HOP-62 31.8 µM | IGROV-1 37.3 µM | M14 42.3 µM | MDA-MB-435 > 100 µM | MOLT-4 20.4 µM | NCI-H460 33.3 µM | OVCAR-3 24.5 µM | OVCAR-8 47.4 µM | RPMI-8226 25.5 µM | RXF 393 95.9 µM | SK-MEL-5 17 µM | SNB-75 24 µM | UACC-257 81.3 µM | UACC-62 30.3 µM | UO-31 43.1 µM

Source: ChEMBL document CHEMBL1201862, “PubChem BioAssay data set” (2004)
